Data: ChEMBL document CHEMBL5724914, “Linking interpersonal differences in gut microbiota composition and drug biotransformation activity” (2024)

Columns and labels:
[1] = human gut metagenome, 24 h, 2 µM
[2] = human gut metagenome, 24 h, 2 µM; remark: listed apart in the source
[3] = (§1) The drug is tested on Z-019 corresponding to rat gut metagenome with ENA study accession number: PRJEB37062 and ENA sample accession number: ERS12561818 for biotransformation under anaerobic condition. The drug concentrations were measured over 9 timepoints collected between 0 and 24 hours of incubation by liquid-chromatography-coupled mass spectrometry (LC–MS); conditions: 2 µM
[4] = human gut metagenome, 24 h, 2 µM; remark: listed apart in the source
[5] = as §1, with “on WLS-069” for “on Z-019”, “to human” for “to rat”, “number: ERS12561748” for “number: ERS12561818”; conditions: 2 µM
[6] = as §1, with “on WLS-090” for “on Z-019”, “to human” for “to rat”, “number: ERS12561753” for “number: ERS12561818”; conditions: 2 µM
[7] = as §1, with “Z-004” for “Z-019”, “to” for “to rat gut”, “ERS12561804” for “ERS12561818”; conditions: 2 µM
[8] = as §1, with “Z-021” for “Z-019”, “to” for “to rat gut”, “ERS12561820” for “ERS12561818”; conditions: 2 µM
[9] = human gut metagenome, 24 h, 2 µM; remark: listed apart in the source
[10] = human gut metagenome, 24 h, 2 µM; remark: listed apart in the source
[11] = as §1, with “on WLS-370” for “on Z-019”, “to human” for “to rat”, “number: ERS12561793” for “number: ERS12561818”; conditions: 2 µM
[12] = as §1, with “on WLS-240” for “on Z-019”, “to human” for “to rat”, “number: ERS12561773” for “number: ERS12561818”; conditions: 2 µM
[13] = as §1, with “on Z-001” for “on Z-019”, “to mouse” for “to rat”, “number: ERS12561801” for “number: ERS12561818”; conditions: 2 µM
[14] = as §1, with “Z-007” for “Z-019”, “ERS12561807” for “ERS12561818”; conditions: 2 µM
[15] = as §1, with “on WLS-220” for “on Z-019”, “to human” for “to rat”, “number: ERS12561769” for “number: ERS12561818”; conditions: 2 µM
[16] = as §1, with “on WLS-038” for “on Z-019”, “to human” for “to rat”, “number: ERS12561745” for “number: ERS12561818”; conditions: 2 µM
[17] = as §1, with “Z-012” for “Z-019”, “to” for “to rat gut”, “ERS12561812” for “ERS12561818”; conditions: 2 µM
[18] = human gut metagenome, 24 h, 2 µM; remark: listed apart in the source
[19] = as §1, with “on Z-030” for “on Z-019”, “to mouse” for “to rat”, “number: ERS12561829” for “number: ERS12561818”; conditions: 2 µM
[20] = human gut metagenome, 24 h, 2 µM; remark: listed apart in the source
Also: call rule not given here.

| SMILES | Bacterial Biotransformation [1] | Bacterial Biotransformation [2] | Bacterial Biotransformation [3] | Bacterial Biotransformation [4] | Bacterial Biotransformation [5] | Bacterial Biotransformation [6] | Bacterial Biotransformation [7] | Bacterial Biotransformation [8] | Bacterial Biotransformation [9] | Bacterial Biotransformation [10] | Bacterial Biotransformation [11] | Bacterial Biotransformation [12] | Bacterial Biotransformation [13] | Bacterial Biotransformation [14] | Bacterial Biotransformation [15] | Bacterial Biotransformation [16] | Bacterial Biotransformation [17] | Bacterial Biotransformation [18] | Bacterial Biotransformation [19] | Bacterial Biotransformation [20] |
| --- | --- | --- | --- | --- | --- | --- | --- | --- | --- | --- | --- | --- | --- | --- | --- | --- | --- | --- | --- | --- |
| CN1CCC(OC(c2ccccc2)c2ccccc2)CC1 | Compound NOT metabolized | Compound NOT metabolized | Compound NOT metabolized | Compound NOT metabolized | Compound NOT metabolized | Compound metabolized | Compound NOT metabolized | Compound metabolized | Compound NOT metabolized | Compound metabolized | Compound metabolized | Compound metabolized | Compound NOT metabolized | Compound NOT metabolized | Compound metabolized | Compound NOT metabolized | Compound NOT metabolized | Compound NOT metabolized | Compound NOT metabolized | Compound NOT metabolized |
| CC(C)NCC(O)COc1ccc(CC(N)=O)cc1 (stereo not given) [ATENOLOL] | Compound metabolized | Compound NOT metabolized | Compound NOT metabolized | Compound NOT metabolized | Compound metabolized | Compound metabolized | Compound NOT metabolized | Compound NOT metabolized | Compound NOT metabolized | Compound NOT metabolized | Compound NOT metabolized | Compound NOT metabolized | Compound NOT metabolized | Compound NOT metabolized | Compound NOT metabolized | Compound NOT metabolized | Compound NOT metabolized | Compound NOT metabolized | Compound NOT metabolized | Compound NOT metabolized |
| CN(C)CCC=C1c2ccccc2COc2ccccc21 [DOXEPIN] | Compound metabolized | Compound NOT metabolized | Compound NOT metabolized | Compound metabolized | Compound metabolized | Compound metabolized | Compound NOT metabolized | Compound NOT metabolized | Compound NOT metabolized | Compound NOT metabolized | Compound metabolized | Compound metabolized | Compound NOT metabolized | Compound NOT metabolized | Compound metabolized | Compound NOT metabolized | Compound NOT metabolized | Compound NOT metabolized | Compound NOT metabolized | Compound NOT metabolized |

Results, then the compound that gave them:

| Bacterial Biotransformation [1] | Bacterial Biotransformation [2] | Bacterial Biotransformation [3] | Bacterial Biotransformation [4] | Bacterial Biotransformation [5] | Bacterial Biotransformation [6] | Bacterial Biotransformation [7] | Bacterial Biotransformation [8] | Bacterial Biotransformation [9] | Bacterial Biotransformation [10] | Bacterial Biotransformation [11] | Bacterial Biotransformation [12] | Bacterial Biotransformation [13] | Bacterial Biotransformation [14] | Bacterial Biotransformation [15] | Bacterial Biotransformation [16] | Bacterial Biotransformation [17] | Bacterial Biotransformation [18] | Bacterial Biotransformation [19] | Bacterial Biotransformation [20] | SMILES |
| --- | --- | --- | --- | --- | --- | --- | --- | --- | --- | --- | --- | --- | --- | --- | --- | --- | --- | --- | --- | --- |
| Compound metabolized | Compound metabolized | Compound NOT metabolized | Compound metabolized | Compound metabolized | Compound metabolized | Compound NOT metabolized | Compound NOT metabolized | Compound metabolized | Compound metabolized | Compound metabolized | Compound metabolized | Compound NOT metabolized | Compound NOT metabolized | Compound metabolized | Compound metabolized | Compound NOT metabolized | Compound metabolized | Compound metabolized | Compound metabolized | CC1=C(CC(=O)O)c2cc(F)ccc2/C1=C\c1ccc([S+](C)[O-])cc1 (stereo not given) |
| Compound metabolized | Compound NOT metabolized | Compound NOT metabolized | Compound NOT metabolized | Compound NOT metabolized | Compound metabolized | Compound NOT metabolized | Compound NOT metabolized | Compound NOT metabolized | Compound metabolized | Compound NOT metabolized | Compound metabolized | Compound NOT metabolized | Compound NOT metabolized | Compound NOT metabolized | Compound NOT metabolized | Compound NOT metabolized | Compound NOT metabolized | Compound NOT metabolized | Compound NOT metabolized | CCN1CCCC1CNC(=O)c1cc(S(=O)(=O)CC)c(N)cc1OC (stereo not given) [AMISULPRIDE] |
| Compound metabolized | Compound metabolized | Compound NOT metabolized | Compound metabolized | Compound metabolized | Compound metabolized | Compound NOT metabolized | Compound metabolized | Compound metabolized | Compound metabolized | Compound metabolized | Compound metabolized | Compound metabolized | Compound NOT metabolized | Compound metabolized | Compound metabolized | Compound metabolized | Compound metabolized | Compound metabolized | Compound metabolized | CC(=O)OCC(=O)[C@@]1(OC(C)=O)[C@@H](C)C[C@H]2[C@@H]3C[C@H](F)C4=CC(=O)C=C[C@]4(C)[C@@]3(F)[C@@H](O)C[C@@]21C [DIFLORASONE DIACETATE] |
| Compound metabolized | Compound metabolized | Compound NOT metabolized | Compound metabolized | Compound metabolized | Compound NOT metabolized | Compound NOT metabolized | Compound metabolized | Compound metabolized | Compound metabolized | Compound metabolized | Compound metabolized | Compound NOT metabolized | Compound NOT metabolized | Compound metabolized | Compound metabolized | Compound NOT metabolized | Compound NOT metabolized | Compound NOT metabolized | Compound metabolized | C[C@]12CCC(=O)C=C1[C@@H]1C[C@@H]1[C@H]1[C@@H]3[C@@H]4C[C@@H]4[C@@]4(CCC(=O)O4)[C@@]3(C)CC[C@@H]12 [DROSPIRENONE] |
| Compound metabolized | Compound metabolized | Compound NOT metabolized | Compound metabolized | Compound metabolized | Compound metabolized | Compound metabolized | Compound metabolized | Compound metabolized | Compound metabolized | Compound metabolized | Compound metabolized | Compound metabolized | Compound metabolized | Compound metabolized | Compound metabolized | Compound metabolized | Compound metabolized | Compound metabolized | Compound metabolized | C#C[C@]1(OC(C)=O)CC[C@H]2[C@@H]3CCC4=C[C@@H](OC(C)=O)CC[C@@H]4[C@H]3CC[C@@]21C [ETHYNODIOL DIACETATE] |
